Results taken from US20260007133A1, “HERBICIDAL COMPOSITION COMPRISING AZINE COMPOUNDS” (BASF SE, priority 2022, published 2026).
Read-outs that look alike come from different tables or passages of the source.

How the values were obtained:
Assay type in all cases: in vivo
Brachiaria decumbens = assay: Greenhouse pre-emergence (PRE) herbicidal test on BRADC; settings: Urochloa decumbens, BRADC PRE, use rate 2 gai/ha
Outline: (§1)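 Seeds sown per species in pots of loamy sand with approx. 3.0% humus; compounds suspended or emulsified in water were sprayed via fine nozzles directly after sowing. Pots were watered and hooded until rooted, held at 10-25° C. or 20-35° C. by species, and scored 0–100 (100 = no emergence/complete destruction) 20 DAT.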

Echinochloa crus-galli [1] = assay: Greenhouse post-emergence (POST) herbicidal test on ECHCG
Outline: (§2)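 Sow or transplant seedlings into loamy-sand pots; grow to 3–15 cm; spray aqueous suspension/emulsion of actives from a 5% by weight emulsion concentrate; hold at 10-25° C or 20-35° C depending on species; score injury 0–100 at 20 DAT.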

Commelina benghalensis = assay: Greenhouse pre-emergence (PRE) herbicidal test on COMBE; settings: Commelina benghalensis, pre-emergence; for inhibition at 4 g/ha: use rate 4 gai/ha
Outline: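 Seeds were sown per species in pots of loamy sand with about 3.0% humus, treated pre-emergence, watered and hooded until rooted. Plants grew at 10-25° C or 20-35° C depending on species. Damage was scored 0-100 (100 = no emergence or above-ground parts destroyed) at 20 DAT.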

Ipomoea hederacea = assay: Greenhouse pre-emergence (PRE) herbicidal test on IPOHE; settings: Ipomoea hederacea, pre-emergence; for inhibition at 8 g/ha: use rate 8 gai/ha
Outline: as §1

Avena fatua = assay: Greenhouse pre-emergence (PRE) herbicidal test on AVEFA; settings: use rate 2 gai/ha
Source text: The culture containers used were plastic pots containing loamy sand with approximately 3.0% of humus as substrate. The seeds of the test plants were sown separately for each species.
For the pre-emergence treatment, the active compounds, suspended or emulsified in water, were applied directly after sowing by means of finely distributing nozzles. The containers were irrigated gently to promote germination and growth and subsequently covered with transparent plastic hoods until the plants had rooted. This cover caused uniform germination of the test plants unless this was adversely affected by the active compounds.
Depending on the species, the plants were kept at 10-25° C. and 20-35° C., respectively.
The test period extended over 2 to 4 weeks. During this time, the plants were tended and their response to the individual treatments was evaluated.
Evaluation was carried out using a scale from 0 to 100. 100 means no emergence of the plants, or complete destruction of at least the above-ground parts, and 0 means no damage or normal course of growth. A good herbicidal activity is given at values of at least 70, and very good herbicidal activity is given at values of at least 85.
If not stated differently, the respective components A and B, and if appropriate, C were formulated as a 5% by weight strength emulsion concentrate and, with addition of the amount of solvent system, introduced into the spray liquor used for applying the active compound.
As indicated application was either post emergent (POST) at the respective growth stage (GS) of the weed (BBCH code), or pre-emergent (PRE).
Assessment was 20 days after treatment (DAT).

Amaranthus retroflexus = assay: Greenhouse post-emergence (POST) herbicidal test on AMARE; settings: Amaranthus retroflexus, post-emergence
Outline: as §2

Echinochloa crus-galli [2] = assay: Greenhouse pre-emergence (PRE) herbicidal test on ECHCG; settings: Echinochloa crus-galli, pre-emergence, PRE
Ambrosia artemisiifolia = assay: Greenhouse pre-emergence (PRE) herbicidal test on AMBEL; settings: Ambrosia artemisiifolia, pre-emergence
AMAPA = assay: Greenhouse pre-emergence (PRE) herbicidal test on AMAPA; settings: pre-emergence
[3] = 480 h, PRE, use rate 8 gai/ha, 20 DAT, read-out: % activity
[4] = 240 h, use rate 1 gai/ha, 10 DAT

COc1c(Cl)cc(F)c(F)c1Nc1nc(N)nc(C(C)(C)F)n1 [Compound I-3]
inhibition at 2 g/ha (Brachiaria decumbens): 30% | % activity (Echinochloa crus-galli [1]; ECHCG POST, use rate 2 gai/ha): 25% | % activity (Echinochloa crus-galli [1]; ECHCG POST, use rate 8 gai/ha): 40% | inhibition at 2 g/ha (Echinochloa crus-galli [1]; Echinochloa crus-galli, post-emergence, 432 h, POST, ECHCG, 2 gai/ha, 18 DAT, read-out: % activity solo application): 0% | pest or weed control at 2 g/ha (Echinochloa crus-galli [1]; Echinochloa crus-galli, post-emergence, 432 h, POST, ECHCG, I-3 solo 2 gai/ha, 18 DAT): 0% | inhibition at 2 g/ha (Echinochloa crus-galli [1]; Echinochloa crus-galli, post-emergence, 480 h, ECHCG POST, 20 DAT, use rate 2 gai/ha, read-out: % activity): 10% | inhibition at 8 g/ha (Echinochloa crus-galli [1]; Echinochloa crus-galli, post-emergence, 480 h, ECHCG POST, 20 DAT, use rate 8 gai/ha, read-out: % activity): 55% | pest or weed control at 2 g/ha (Echinochloa crus-galli [1]; Echinochloa crus-galli, post-emergence, 480 h, POST, 2 gai/ha, 20 DAT): 10% | inhibition at 2 g/ha (Echinochloa crus-galli [1]; Echinochloa crus-galli, post-emergence, 480 h, POST, ECHCG, use rate 2 gai/ha, 20 DAT, read-out: solo application % activity): 0% | inhibition at 4 g/ha (Echinochloa crus-galli [1]; Echinochloa crus-galli, post-emergence, 480 h, POST, ECHCG, use rate 4 gai/ha, 20 DAT): 35% | inhibition at 8 g/ha (Echinochloa crus-galli [1]; Echinochloa crus-galli, post-emergence, 480 h, POST, ECHCG, use rate 8 gai/ha, 20 DAT, read-out: % activity): 50% | inhibition at 8 g/ha (Echinochloa crus-galli [1]; Echinochloa crus-galli, post-emergence, 480 h, POST, ECHCG, use rate 8 gai/ha, 20 DAT, read-out: solo application % activity): 10% | inhibition at 8 g/ha (Echinochloa crus-galli [1]; Echinochloa crus-galli, post-emergence, ECHCG POST, use rate 8 gai/ha, read-out: % activity): 35% | inhibition at 2 g/ha (Echinochloa crus-galli [1]; Echinochloa crus-galli, post-emergence, POST, ECHCG, use rate 2 gai/ha, read-out: % activity): 30% | pest or weed control at 2 g/ha (Commelina benghalensis; 432 h, PRE, COMBE, I-3 solo 2 gai/ha, 18 DAT, read-out: % activity): 50% | inhibition at 2 g/ha (Commelina benghalensis; 480 h, COMBE PRE, 20 DAT, use rate 2 gai/ha, read-out: % activity): 0% | inhibition at 8 g/ha (Commelina benghalensis; 480 h, COMBE PRE, 20 DAT, use rate 8 gai/ha, read-out: % activity): 75% | pest or weed control at 8 g/ha (Commelina benghalensis; 480 h, PRE, 8 gai/ha, 20 DAT): 75% | inhibition at 2 g/ha (Commelina benghalensis; 480 h, PRE, COMBE, 2 gai/ha, 20 DAT, read-out: % activity solo application): 10% | inhibition at 8 g/ha (Commelina benghalensis; 480 h, PRE, COMBE, 8 gai/ha, 20 DAT, read-out: % activity solo application): 10% | inhibition at 2 g/ha (Commelina benghalensis; 480 h, PRE, COMBE, use rate 2 gai/ha, 20 DAT, read-out: solo application % activity): 10% | inhibition at 4 g/ha (Commelina benghalensis; 480 h, PRE, COMBE, 20 DAT): 35% | inhibition at 8 g/ha (Commelina benghalensis; 480 h, PRE, COMBE, use rate 8 gai/ha, 20 DAT, read-out: % activity): 70% | inhibition at 8 g/ha (Commelina benghalensis; 480 h, PRE, COMBE, use rate 8 gai/ha, 20 DAT, read-out: solo application % activity): 10% | inhibition at 2 g/ha (Commelina benghalensis; 480 h, PRE, use rate 2 gai/ha, 20 DAT, read-out: % activity): 10% | inhibition at 8 g/ha (Commelina benghalensis; [3]): 35% | inhibition at 8 g/ha (Commelina benghalensis; COMBE PRE, use rate 8 gai/ha, read-out: % activity): 60% | inhibition at 2 g/ha (Commelina benghalensis; PRE, COMBE, use rate 2 gai/ha, read-out: % activity): 0% | inhibition at 4 g/ha (Commelina benghalensis; PRE, COMBE): 25% | inhibition at 8 g/ha (Commelina benghalensis; PRE, COMBE, use rate 8 gai/ha, read-out: % activity): 75% | inhibition at 4 g/ha (Ipomoea hederacea; 480 h, PRE, IPOHE, use rate 4 gai/ha, 20 DAT): 5% | inhibition at 8 g/ha (Ipomoea hederacea; 480 h, PRE, IPOHE, 20 DAT): 30% | inhibition at 16 g/ha (Ipomoea hederacea; 480 h, PRE, IPOHE, use rate 16 gai/ha, 20 DAT): 40% | inhibition at 32 g/ha (Ipomoea hederacea; 480 h, PRE, IPOHE, use rate 32 gai/ha, 20 DAT): 40% | inhibition at 8 g/ha (Ipomoea hederacea; IPOHE PRE): 35% | inhibition at 2 g/ha (Avena fatua): 20% | pest or weed control at 8 g/ha (Amaranthus retroflexus; 432 h, POST, AMARE, I-3 solo 8 gai/ha, 18 DAT): 90% | inhibition at 2 g/ha (Amaranthus retroflexus; 480 h, POST, AMARE, 2 gai/ha, 20 DAT, read-out: % activity solo application): 45% | inhibition at 4 g/ha (Amaranthus retroflexus; 480 h, POST, AMARE, use rate 4 gai/ha, 20 DAT): 50% | inhibition at 2 g/ha (Amaranthus retroflexus; AMARE POST, use rate 2 gai/ha, read-out: % activity): 60% | inhibition at 8 g/ha (Amaranthus retroflexus; AMARE POST, use rate 8 gai/ha, read-out: % activity): 75% | inhibition at 2 g/ha (Amaranthus retroflexus; POST, AMARE, use rate 2 gai/ha, read-out: % activity): 70% | inhibition at 1 g/ha (Echinochloa crus-galli [2]; [4]): 10% | inhibition at 2 g/ha (Echinochloa crus-galli [2]; 240 h, use rate 2 gai/ha, 10 DAT, read-out: % activity): 10% | inhibition at 4 g/ha (Echinochloa crus-galli [2]; 240 h, use rate 4 gai/ha, 10 DAT): 20% | inhibition at 8 g/ha (Echinochloa crus-galli [2]; 240 h, use rate 8 gai/ha, 10 DAT, read-out: % activity): 20% | pest or weed control at 2 g/ha (Echinochloa crus-galli [2]; 432 h, ECHCG, I-3 solo 2 gai/ha, 18 DAT): 25% | inhibition at 2 g/ha (Echinochloa crus-galli [2]; 480 h, ECHCG, 2 gai/ha, 20 DAT, read-out: % activity solo application): 5% | inhibition at 8 g/ha (Echinochloa crus-galli [2]; 480 h, ECHCG, 8 gai/ha, 20 DAT, read-out: % activity solo application): 95% | inhibition at 2 g/ha (Echinochloa crus-galli [2]; 480 h, ECHCG, use rate 2 gai/ha, 20 DAT, read-out: solo application % activity): 5% | inhibition at 8 g/ha (Echinochloa crus-galli [2]; 480 h, ECHCG, use rate 8 gai/ha, 20 DAT, read-out: solo application % activity): 95% | inhibition at 2 g/ha (Ambrosia artemisiifolia; 240 h, PRE, use rate 2 gai/ha, 10 DAT, read-out: % activity): 10% | inhibition at 8 g/ha (Ambrosia artemisiifolia; 240 h, PRE, use rate 8 gai/ha, 10 DAT, read-out: % activity): 65% | inhibition at 2 g/ha (Ambrosia artemisiifolia; 480 h, AMBEL PRE, 20 DAT, use rate 2 gai/ha, read-out: % activity): 50% | inhibition at 2 g/ha (Ambrosia artemisiifolia; 480 h, PRE, AMBEL, 2 gai/ha, 20 DAT, read-out: % activity solo application): 10% | inhibition at 8 g/ha (Ambrosia artemisiifolia; 480 h, PRE, AMBEL, 8 gai/ha, 20 DAT, read-out: % activity solo application): 45% | inhibition at 2 g/ha (Ambrosia artemisiifolia; 480 h, PRE, AMBEL, use rate 2 gai/ha, 20 DAT, read-out: solo application % activity): 10% | inhibition at 8 g/ha (Ambrosia artemisiifolia; 480 h, PRE, AMBEL, use rate 8 gai/ha, 20 DAT, read-out: solo application % activity): 45% | inhibition at 8 g/ha (Ambrosia artemisiifolia; [3]): 90% | inhibition at 4 g/ha (Ambrosia artemisiifolia; PRE, AMBEL, use rate 4 gai/ha): 25% | inhibition at 1 g/ha (AMAPA; [4]): 40% | inhibition at 2 g/ha (AMAPA; 240 h, use rate 2 gai/ha, 10 DAT): 60% | inhibition at 8 g/ha (AMAPA; 480 h, use rate 8 gai/ha, 20 DAT): 60%
